These results are taken from publication PMC12751141, “Disrupting α-Synuclein–ClpP interaction restores mitochondrial function and attenuates neuropathology in Parkinson’s disease models” (Molecular Neurodegeneration, 2025).

One experiment relates to mThy1-hSNCA mice. The experiment is described as follows: Open-field test in mThy1-hSNCA mice. Format: in vivo, mouse. As to conditions: 3 mg/kg/day s.c.; age of 8-month; n = 12-15 mice/group; vs TAT. The procedure:
C57BL/6 N-Tg (Thy1-SNCA)15Mjff/J (JAX: 017682) breeders (C57Bl/6NJ genetic background) were purchased from Jackson Laboratories. The mice were mated, bred, and genotyped in the animal facility of Case Western Reserve University. All mice were maintained at a 12-hour light/dark cycle (on 6 am, off 6 pm). All randomization and peptide treatments in mThy1-hSNCA mice were prepared by an experimenter not associated with the behavioral and neuropathology analysis. Only male mice were used in the study. mThy1-hSNCA transgenic mice and their age-matched WT littermates were implanted with a 28-day subcutaneous osmotic pump (Alzet, Cupertino CA, Model 2004) containing either TAT control peptide or CS2 peptide, which delivered the peptides at indicated rate (1 or 3 or 10 mg/kg/day). The pump was replaced once every four weeks. All mice were sacrificed at age of 10-month for neuropathology assessment.
The locomotor activity of all experimental mice was assessed in an open field chamber at 8-month-old. Briefly, the mice were placed in the center of an activity chamber (Omnitech Electronics) and allowed to explore the chamber while being tracked using an automated infrared tracking system (Vertax, Omnitech Electronics). A 24-hour locomotor activity analysis was performed. Both horizontal and vertical activity/movements were recorded.

Another experiment has as its system SH-SY5Y cells. The experiment in a line: Mitochondrial membrane potential (TMRM) in SH-SY5Y cells. The note with it: SH-SY5Y expressing Venus-αSyn, n = 8. Format: cell-based. The procedure:
Cells cultured on coverslips or 24-well plates were washed with DPBS and then incubated with 0.25 µM Tetramethylrhodamine, methyl ester (TMRM) (Invitrogen, T668), for 20 min at 37 °C. For cells cultured on coverslips, the images were visualized by microscope, and quantification of images was then carried out using NIH Fiji ImageJ software. At least 100 cells per group were counted in the analysis.

As for `CC(C)[C@H](NC(=O)CNC(=O)CNC(=O)CCCCCNC(=O)[C@H](CCCNC(=N)N)NC(=O)[C@H](CCCNC(=N)N)NC(=O)[C@H](CCCNC(=N)N)NC(=O)[C@H](CCC(N)=O)NC(=O)[C@H](CCCNC(=N)N)NC(=O)[C@H](CCCNC(=N)N)NC(=O)[C@H](CCCCN)NC(=O)[C@H](CCCCN)NC(=O)[C@H](CCCNC(=N)N)NC(=O)CNC(=O)[C@@H](N)Cc1ccc(O)cc1)C(=O)N[C@H](C(=O)N[C@H](C(=O)N[C@@H](C)C(=O)O)[C@@H](C)O)C(C)C` [CS2, TAT-C6-GGVVTA], the “locomotor activity, open field” value with mThy1-hSNCA mice is recorded as “ameliorated locomotor activity”. Also, in the experiment with SH-SY5Y cells, the mitochondrial membrane potential result was “rescued upon CS2 treatment”.
